How the values were obtained:
Assay in all cases: relative viability (nuclei count vs DMSO), 5 days (fraction); higher = more cells survive
EKVX = test system: EKVX
In short: (§1)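 The day after seeding in 1536-well plates, lung cancer cell lines were treated by pin tool with a single drug, or with a fixed anchor-drug dose together with five library-drug doses (not always all listed) in √10 steps. After 5 days, a combined fix-and-stain solution (final 0.05% Triton X-100, 1% formaldehyde, 1 ug/ml Hoechst) was added. Nuclei counted on 4× images gave relative viability as treated counts over vehicle counts, reported as the median of duplicate plates.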

LCLC-97TM1 = test system: LCLC-97TM1
In short: as §1

NCI-H1437 = test system: NCI-H1437
In short: as §1

NCI-H1650 = test system: NCI-H1650
In short: as §1

NCI-H1666 = test system: NCI-H1666
In short: as §1

NCI-H1792 = test system: NCI-H1792
In short: as §1

NCI-H1915 = test system: NCI-H1915
In short: as §1

NCI-H1975 = test system: NCI-H1975
In short: as §1

NCI-H2342 = test system: NCI-H2342
In short: as §1

NCI-H23 = test system: NCI-H23
In short: as §1

NCI-H322M = test system: NCI-H322M
In short: as §1

NCI-H358 = test system: NCI-H358
In short: as §1

NCI-H441 = test system: NCI-H441
In short: as §1

NCI-H460 = test system: NCI-H460
In short: as §1

NCI-H520 = test system: NCI-H520
In short: as §1

NCI-H522 = test system: NCI-H522
In short: as §1

NCI-H647 = test system: NCI-H647
In short: as §1

NCI-H661 = test system: NCI-H661
In short: as §1

NCI-H727 = test system: NCI-H727
In short: as §1

NCI-H838 = test system: NCI-H838
In short: as §1

PC-3 [JPC-3] = test system: PC-3 [JPC-3]
In short: as §1

SK-LU-1 = test system: SK-LU-1
In short: as §1

SMILES: Cc1cn(-c2cc(NC(=O)c3ccc(C)c(Nc4nccc(-c5cccnc5)n4)c3)cc(C(F)(F)F)c2)cn1 [Nilotinib] + CC(=O)c1c(C)c2cnc(Nc3ccc(N4CCNCC4)cn3)nc2n(C2CCCC2)c1=O [Palbociclib] (partner 0.5 µM)
- relative viability (EKVX; first compound 0.001 µM): 0.372
- relative viability (EKVX; first compound 0.003162 µM): 0.492
- relative viability (EKVX; first compound 0.01 µM): 0.479
- relative viability (EKVX; first compound 0.03162 µM): 0.379
- relative viability (EKVX; first compound 0.1 µM): 0.62
- relative viability (LCLC-97TM1; first compound 0.001 µM): 0.222
- relative viability (LCLC-97TM1; first compound 0.003162 µM): 0.245
- relative viability (LCLC-97TM1; first compound 0.01 µM): 0.225
- relative viability (LCLC-97TM1; first compound 0.1 µM): 0.254
- relative viability (NCI-H1437; first compound 0.001 µM): 0.28
- relative viability (NCI-H1437; first compound 0.003162 µM): 0.304
- relative viability (NCI-H1437; first compound 0.01 µM): 0.308
- relative viability (NCI-H1437; first compound 0.03162 µM): 0.276
- relative viability (NCI-H1437; first compound 0.1 µM): 0.32
- relative viability (NCI-H1650; first compound 0.001 µM): 0.329
- relative viability (NCI-H1650; first compound 0.003162 µM): 0.402
- relative viability (NCI-H1650; first compound 0.01 µM): 0.324
- relative viability (NCI-H1650; first compound 0.03162 µM): 0.309
- relative viability (NCI-H1650; first compound 0.1 µM): 0.298
- relative viability (NCI-H1666; first compound 0.001 µM): 0.62
- relative viability (NCI-H1666; first compound 0.003162 µM): 0.673
- relative viability (NCI-H1666; first compound 0.01 µM): 0.588
- relative viability (NCI-H1666; first compound 0.03162 µM): 0.583
- relative viability (NCI-H1666; first compound 0.1 µM): 0.65
- relative viability (NCI-H1792; first compound 0.001 µM): 0.582
- relative viability (NCI-H1792; first compound 0.003162 µM): 0.684
- relative viability (NCI-H1792; first compound 0.01 µM): 0.732
- relative viability (NCI-H1792; first compound 0.1 µM): 0.89
- relative viability (NCI-H1915; first compound 0.001 µM): 0.492
- relative viability (NCI-H1915; first compound 0.003162 µM): 0.535
- relative viability (NCI-H1915; first compound 0.01 µM): 0.53
- relative viability (NCI-H1915; first compound 0.03162 µM): 0.502
- relative viability (NCI-H1915; first compound 0.1 µM): 0.475
- relative viability (NCI-H1975; first compound 0.001 µM): 0.498
- relative viability (NCI-H1975; first compound 0.003162 µM): 0.608
- relative viability (NCI-H1975; first compound 0.01 µM): 0.653
- relative viability (NCI-H1975; first compound 0.03162 µM): 0.345
- relative viability (NCI-H1975; first compound 0.1 µM): 0.226
- relative viability (NCI-H2342; first compound 0.001 µM): 0.508
- relative viability (NCI-H2342; first compound 0.003162 µM): 0.559
- relative viability (NCI-H2342; first compound 0.01 µM): 0.49
- relative viability (NCI-H2342; first compound 0.03162 µM): 0.489
- relative viability (NCI-H2342; first compound 0.1 µM): 0.478
- relative viability (NCI-H23; first compound 0.001 µM): 0.494
- relative viability (NCI-H23; first compound 0.003162 µM): 0.52
- relative viability (NCI-H23; first compound 0.01 µM): 0.512
- relative viability (NCI-H23; first compound 0.03162 µM): 0.443
- relative viability (NCI-H23; first compound 0.1 µM): 0.404
- relative viability (NCI-H322M; first compound 0.001 µM): 0.512
- relative viability (NCI-H322M; first compound 0.003162 µM): 0.461
- relative viability (NCI-H322M; first compound 0.01 µM): 0.534
- relative viability (NCI-H322M; first compound 0.03162 µM): 0.527
- relative viability (NCI-H322M; first compound 0.1 µM): 0.602
- relative viability (NCI-H358; first compound 0.001 µM): 0.131
- relative viability (NCI-H358; first compound 0.003162 µM): 0.131
- relative viability (NCI-H358; first compound 0.01 µM): 0.148
- relative viability (NCI-H358; first compound 0.03162 µM): 0.124
- relative viability (NCI-H358; first compound 0.1 µM): 0.127
- relative viability (NCI-H441; first compound 0.001 µM): 0.204
- relative viability (NCI-H441; first compound 0.003162 µM): 0.209
- relative viability (NCI-H441; first compound 0.01 µM): 0.197
- relative viability (NCI-H441; first compound 0.03162 µM): 0.201
- relative viability (NCI-H441; first compound 0.1 µM): 0.192
- relative viability (NCI-H460; first compound 0.001 µM): 0.101
- relative viability (NCI-H460; first compound 0.003162 µM): 0.0788
- relative viability (NCI-H460; first compound 0.01 µM): 0.144
- relative viability (NCI-H460; first compound 0.03162 µM): 0.148
- relative viability (NCI-H460; first compound 0.1 µM): 0.134
- relative viability (NCI-H520; first compound 0.001 µM): 0.21
- relative viability (NCI-H520; first compound 0.003162 µM): 0.219
- relative viability (NCI-H520; first compound 0.01 µM): 0.241
- relative viability (NCI-H520; first compound 0.03162 µM): 0.218
- relative viability (NCI-H520; first compound 0.1 µM): 0.225
- relative viability (NCI-H522; first compound 0.03162 µM): 0.819
- relative viability (NCI-H522; first compound 0.1 µM): 0.805
- relative viability (NCI-H647; first compound 0.001 µM): 0.384
- relative viability (NCI-H647; first compound 0.003162 µM): 0.382
- relative viability (NCI-H647; first compound 0.01 µM): 0.468
- relative viability (NCI-H647; first compound 0.03162 µM): 0.266
- relative viability (NCI-H647; first compound 0.1 µM): 0.26
- relative viability (NCI-H661; first compound 0.001 µM): 0.438
- relative viability (NCI-H661; first compound 0.003162 µM): 0.396
- relative viability (NCI-H661; first compound 0.01 µM): 0.404
- relative viability (NCI-H661; first compound 0.03162 µM): 0.444
- relative viability (NCI-H661; first compound 0.1 µM): 0.361
- relative viability (NCI-H727; first compound 0.001 µM): 0.667
- relative viability (NCI-H727; first compound 0.003162 µM): 0.69
- relative viability (NCI-H727; first compound 0.01 µM): 0.71
- relative viability (NCI-H727; first compound 0.03162 µM): 0.593
- relative viability (NCI-H727; first compound 0.1 µM): 0.633
- relative viability (NCI-H838; first compound 0.001 µM): 0.215
- relative viability (NCI-H838; first compound 0.003162 µM): 0.23
- relative viability (NCI-H838; first compound 0.01 µM): 0.188
- relative viability (NCI-H838; first compound 0.03162 µM): 0.198
- relative viability (NCI-H838; first compound 0.1 µM): 0.201
- relative viability (PC-3 [JPC-3]; first compound 0.001 µM): 0.526
- relative viability (PC-3 [JPC-3]; first compound 0.01 µM): 0.542
- relative viability (PC-3 [JPC-3]; first compound 0.03162 µM): 0.566
- relative viability (PC-3 [JPC-3]; first compound 0.1 µM): 0.518
- relative viability (SK-LU-1; first compound 0.001 µM): 0.355
- relative viability (SK-LU-1; first compound 0.003162 µM): 0.334
- relative viability (SK-LU-1; first compound 0.01 µM): 0.405
- relative viability (SK-LU-1; first compound 0.03162 µM): 0.311
- relative viability (SK-LU-1; first compound 0.1 µM): 0.335

Reference: the supplement of paper PMC10307832
